Measurements: ChEMBL document CHEMBL5316329, “Structure-Based Optimization of 2,4,5-Trisubstituted Pyrimidines as Potent HIV-1 Non-Nucleoside Reverse Transcriptase Inhibitors: Exploiting the Tolerant Regions of the Non-Nucleoside Reverse Transcriptase Inhibitors' Binding Pocket” (J Med Chem, 2023)

Experiments:
[1] = tested on: Human immunodeficiency virus 1; assay: Antiviral activity against NNRTI-resistant HIV-1 RES056 infected in human MT4 cells assessed as virus-induced cytopathicity treated for 5 days by MTT assay; assay type: functional, organism-based; details: Human immunodeficiency virus 1, RES056, MT4, 120 h
[2] = Cytotoxicity against human MT4 cells assessed as reduction in cell viability treated for 5 days by MTT assay; assay type: toxicity, cell-based; details: time 5 day
[3] = target: Human immunodeficiency virus type 1 reverse transcriptase (Human immunodeficiency virus 1, UniProt Q72547); assay: Inhibition of wild-type HIV-1 reverse transcriptase assessed as inhibition of biotin-dUTP incorporation
[4] = tested on: Human immunodeficiency virus 1; assay: Antiviral activity against HIV-1 E138K mutant infected in human MT4 cells assessed as virus-induced cytopathicity treated for 5 days by MTT assay; assay type: functional, organism-based; details: Human immunodeficiency virus 1, MT4, 120 h; read-out: EC50
[5] = tested on: Human immunodeficiency virus 1; assay: Antiviral activity against HIV-1 harboring K103N mutant infected in human MT4 cells assessed as virus-induced cytopathicity treated for 5 days by MTT assay; assay type: functional, organism-based; details: Human immunodeficiency virus 1, MT4, 120 h; read-out: EC50
[6] = tested on: Human immunodeficiency virus 1; assay: Antiviral activity against HIV-1 harboring Y188L mutant infected in human MT4 cells assessed as virus-induced cytopathicity treated for 5 days by MTT assay; assay type: functional, organism-based; details: Human immunodeficiency virus 1, MT4, 120 h; read-out: EC50
[7] = tested on: Human immunodeficiency virus 1; assay: Antiviral activity against HIV-1 harboring L100I mutant infected in human MT4 cells assessed as virus-induced cytopathicity treated for 5 days by MTT assay; assay type: functional, organism-based; details: Human immunodeficiency virus 1, MT4, 120 h
[8] = tested on: Human immunodeficiency virus 1; assay: Antiviral activity against wild-type HIV-1 IIIB infected in human MT4 cells assessed as virus-induced cytopathicity treated for 5 days by MTT assay; assay type: functional, organism-based; details: Human immunodeficiency virus 1, IIIB, MT4, 120 h
[9] = tested on: Human immunodeficiency virus 1; assay: Antiviral activity against HIV-1 harboring Y181C mutant infected in human MT4 cells assessed as virus-induced cytopathicity treated for 5 days by MTT assay; assay type: functional, organism-based; details: Human immunodeficiency virus 1, MT4, 120 h
[10] = tested on: Human immunodeficiency virus 1; assay: Antiviral activity against HIV-1 F227L/V106A mutant infected in human MT4 cells assessed as virus-induced cytopathicity treated for 5 days by MTT assay; assay type: functional, organism-based; details: Human immunodeficiency virus 1, MT4, 120 h; read-out: EC50
[11] = Selectivity index, ratio of CC50 for human MT4 cells to EC50 for wild-type HIV-1 IIIB infected in human MT4 cells; assay type: toxicity, cell-based; details: read-out: Selectivity Index
[12] = Selectivity index, ratio of CC50 for human MT4 cells to EC50 for NNRTI-resistant HIV-1 RES056 infected in human MT4 cells; assay type: toxicity, cell-based; details: read-out: Selectivity Index
Cytochrome P450 2D6 = Cytochrome P450 2D6 (Homo sapiens, UniProt P10635); assay: Inhibition of CYP2D6 (unknown origin); assay type: ADME
Cytochrome P450 2D6, sequence (P10635 whole entry): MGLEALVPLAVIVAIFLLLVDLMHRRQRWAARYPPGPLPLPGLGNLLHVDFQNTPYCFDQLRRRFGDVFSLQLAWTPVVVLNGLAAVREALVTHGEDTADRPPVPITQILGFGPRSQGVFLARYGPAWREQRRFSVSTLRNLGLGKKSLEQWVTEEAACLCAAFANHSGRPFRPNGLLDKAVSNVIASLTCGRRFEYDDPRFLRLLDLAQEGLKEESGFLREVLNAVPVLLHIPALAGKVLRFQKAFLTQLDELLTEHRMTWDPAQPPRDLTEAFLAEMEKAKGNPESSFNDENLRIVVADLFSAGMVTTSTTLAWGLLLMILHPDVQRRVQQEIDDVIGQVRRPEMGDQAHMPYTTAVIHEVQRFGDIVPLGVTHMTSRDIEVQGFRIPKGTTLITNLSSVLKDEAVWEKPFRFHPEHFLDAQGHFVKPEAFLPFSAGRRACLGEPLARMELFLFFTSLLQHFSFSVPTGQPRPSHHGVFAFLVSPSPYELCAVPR

Cytochrome P450 3A4 = Cytochrome P450 3A4 (Homo sapiens, UniProt P08684); assay: Inhibition of CYP3A4 (unknown origin) using midazolam as substrate; assay type: ADME
Cytochrome P450 3A4, sequence (P08684 whole entry): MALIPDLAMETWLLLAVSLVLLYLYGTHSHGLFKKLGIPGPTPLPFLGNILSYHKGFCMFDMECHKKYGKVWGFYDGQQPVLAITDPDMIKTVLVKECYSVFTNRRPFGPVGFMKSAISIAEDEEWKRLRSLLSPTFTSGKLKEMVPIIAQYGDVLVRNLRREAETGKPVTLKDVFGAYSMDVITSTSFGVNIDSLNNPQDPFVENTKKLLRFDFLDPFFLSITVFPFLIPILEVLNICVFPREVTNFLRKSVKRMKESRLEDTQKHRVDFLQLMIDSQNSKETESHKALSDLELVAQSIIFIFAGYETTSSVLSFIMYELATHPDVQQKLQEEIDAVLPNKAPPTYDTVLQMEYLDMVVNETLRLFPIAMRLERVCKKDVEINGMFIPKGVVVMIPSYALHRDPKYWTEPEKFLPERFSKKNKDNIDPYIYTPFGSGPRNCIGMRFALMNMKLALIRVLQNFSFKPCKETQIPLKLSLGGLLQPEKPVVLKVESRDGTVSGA

Cytochrome P450 2C19 = Cytochrome P450 2C19 (Homo sapiens, UniProt P33261); assay: Inhibition of CYP2C19 (unknown origin); assay type: ADME
Cytochrome P450 2C19, sequence (P33261 whole entry): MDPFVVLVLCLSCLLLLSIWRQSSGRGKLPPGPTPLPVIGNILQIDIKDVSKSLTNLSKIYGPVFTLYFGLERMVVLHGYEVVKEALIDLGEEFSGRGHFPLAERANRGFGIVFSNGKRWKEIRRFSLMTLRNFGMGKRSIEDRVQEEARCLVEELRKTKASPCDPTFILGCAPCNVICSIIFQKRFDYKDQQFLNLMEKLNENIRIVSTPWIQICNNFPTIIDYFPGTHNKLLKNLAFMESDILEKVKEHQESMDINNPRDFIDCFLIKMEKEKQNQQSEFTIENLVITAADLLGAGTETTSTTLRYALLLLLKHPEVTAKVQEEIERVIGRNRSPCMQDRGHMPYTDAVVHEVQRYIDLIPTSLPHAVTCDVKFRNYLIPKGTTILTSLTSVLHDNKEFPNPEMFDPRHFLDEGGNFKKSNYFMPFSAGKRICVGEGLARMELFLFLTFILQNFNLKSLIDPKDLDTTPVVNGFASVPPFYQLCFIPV

Cytochrome P450 2C9 = Cytochrome P450 2C9 (Homo sapiens, UniProt P11712); assay: Inhibition of CYP2C9 (unknown origin); assay type: ADME
Cytochrome P450 2C9, sequence (P11712 whole entry): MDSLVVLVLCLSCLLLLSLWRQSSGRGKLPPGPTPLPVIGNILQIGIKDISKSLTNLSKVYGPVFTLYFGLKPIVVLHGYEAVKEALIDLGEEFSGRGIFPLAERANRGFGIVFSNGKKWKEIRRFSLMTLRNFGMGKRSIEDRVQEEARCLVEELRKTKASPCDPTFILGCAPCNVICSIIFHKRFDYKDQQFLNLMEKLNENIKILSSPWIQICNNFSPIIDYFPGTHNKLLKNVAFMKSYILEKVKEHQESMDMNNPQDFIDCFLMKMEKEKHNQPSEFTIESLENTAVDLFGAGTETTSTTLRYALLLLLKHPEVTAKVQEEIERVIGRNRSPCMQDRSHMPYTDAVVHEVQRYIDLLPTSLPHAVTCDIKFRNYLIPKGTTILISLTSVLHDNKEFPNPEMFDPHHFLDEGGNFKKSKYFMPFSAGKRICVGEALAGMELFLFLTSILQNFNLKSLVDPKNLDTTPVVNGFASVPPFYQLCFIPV

Cytochrome P450 1A2 = target: T1, Cytochrome P450 1A2 (Homo sapiens, UniProt P05177); assay: Inhibition of CYP1A2 (unknown origin); assay type: ADME
T1 sequence (P05177 whole entry): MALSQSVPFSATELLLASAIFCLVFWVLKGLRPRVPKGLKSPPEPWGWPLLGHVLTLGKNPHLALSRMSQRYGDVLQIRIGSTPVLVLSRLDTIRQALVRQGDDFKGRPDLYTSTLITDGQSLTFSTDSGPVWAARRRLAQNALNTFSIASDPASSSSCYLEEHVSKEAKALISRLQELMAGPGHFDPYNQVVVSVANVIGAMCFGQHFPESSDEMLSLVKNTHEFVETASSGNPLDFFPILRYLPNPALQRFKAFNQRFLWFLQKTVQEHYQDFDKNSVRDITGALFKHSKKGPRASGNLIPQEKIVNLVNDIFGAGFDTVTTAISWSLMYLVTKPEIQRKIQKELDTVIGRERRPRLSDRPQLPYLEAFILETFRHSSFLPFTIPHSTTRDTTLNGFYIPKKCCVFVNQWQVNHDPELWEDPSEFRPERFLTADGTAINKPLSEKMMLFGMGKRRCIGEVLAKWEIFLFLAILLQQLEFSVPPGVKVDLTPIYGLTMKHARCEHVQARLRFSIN

SMILES | EC50 [1] | CC50 at 120 h [2] | IC50 [3] | EC50 [4] | EC50 [5] | EC50 [6] | EC50 ([7]; read-out: EC50) | EC50 [8] | EC50 ([9]; read-out: EC50) | EC50 [10] | selectivity ratio [11] | selectivity ratio [12] | IC50 (Cytochrome P450 2D6) | IC50 (Cytochrome P450 3A4) | IC50 (Cytochrome P450 2C19) | IC50 (Cytochrome P450 2C9) | IC50 (Cytochrome P450 1A2) | EC50 ([7]; read-out: pEC50 (converted)) | EC50 ([9]; read-out: pEC50 (converted))
Cc1cc(/C=C/C#N)cc(C)c1Oc1nc(NC2CCN(Cc3ccc(C(N)=O)cc3)CC2)ncc1-c1cccc(N)c1 | 22.4 nM | 8370 nM | 138 nM | 9.11 nM | 5.62 nM | 51 nM | 11 nM | 5.66 nM | 10.1 nM | 16.6 nM | 1480 | 373 |  |  |  |  |  |  | 
Cc1cc(/C=C/C#N)cc(C)c1Cc1nc(NC2CCN(Cc3ccc(S(C)(=O)=O)cc3)CC2)ncc1-c1cncnc1 | 14 nM | 2900 nM | 104 nM | 5.95 nM | 3.6 nM | 22.1 nM | 3.14 nM | 3.65 nM | 5.45 nM | 9.14 nM | 796 | 207 | 25800 nM | 6540 nM | > 50000 nM | 9580 nM | > 50000 nM |  | 
Cc1cc(/C=C/C#N)cc(C)c1Oc1nc(NC2CCN(Cc3ccc(S(N)(=O)=O)cc3)CC2)ncc1-c1cccc(N)c1 | 25.8 nM | 6940 nM | 134 nM | 11.2 nM | 6.11 nM | 46.5 nM | 7.05 nM | 6.16 nM | 103 nM | 11.4 nM | 1130 | 269 |  |  |  |  |  |  | 
Cc1cc(/C=C/C#N)cc(C)c1Oc1nc(NC2CCN(Cc3ccc(C(N)=O)cc3)CC2)ncc1-c1cccc(O)c1 | 35.2 nM | 36900 nM | 88 nM | 21.1 nM | 5.31 nM | 39.3 nM | 11.6 nM | 4.62 nM | 9.7 nM | 13.1 nM | 8000 | 1050 |  |  |  |  |  |  | 
Cc1cc(/C=C/C#N)cc(C)c1Oc1nc(NC2CCN(Cc3ccc(S(N)(=O)=O)cc3)CC2)ncc1-c1ccc2c(c1)OCO2 | 47 nM | 6400 nM | 122 nM | 40.5 nM | 6.3 nM | 47.8 nM | 10.6 nM | 5.48 nM | 10.7 nM | 35.7 nM | 1170 | 136 |  |  |  |  |  |  | 
Cc1cc(/C=C/C#N)cc(C)c1Oc1nc(NC2CCN(Cc3ccc(C(N)=O)cc3)CC2)ncc1-c1ccc(N)cc1 | 18.9 nM | 3910 nM | 108 nM | 5.05 nM | 3.53 nM | 22.8 nM | 3.31 nM | 3.41 nM | 4.81 nM | 9.18 nM | 1140 | 207 |  |  |  |  |  |  | 
Cc1cc(/C=C/C#N)cc(C)c1Oc1nc(NC2CCN(Cc3ccc(S(N)(=O)=O)cc3)CC2)ncc1-c1ccc(O)cc1 | 26.1 nM | 4440 nM | 91 nM | 7.65 nM | 4.13 nM | 31.3 nM | 3.68 nM | 3.83 nM | 7.77 nM | 12.7 nM | 1160 | 170 |  |  |  |  |  |  | 
CC(=O)c1ccc(-c2cnc(NC3CCN(Cc4ccc(S(N)(=O)=O)cc4)CC3)nc2Oc2c(C)cc(/C=C/C#N)cc2C)cc1 | 40.7 nM | 8090 nM | 130 nM | 12 nM | 5.18 nM | 28.5 nM | 10.8 nM | 5.34 nM | 10.2 nM | 22.6 nM | 1520 | 198 |  |  |  |  |  |  | 
Cc1cc(/C=C/C#N)cc(C)c1Oc1nc(NC2CCN(Cc3ccc(S(C)(=O)=O)cc3)CC2)ncc1-c1ccc(N)cc1 | 34.1 nM | 6740 nM | 159 nM | 7.47 nM | 4.92 nM | 33.2 nM | 4.68 nM | 4.46 nM | 8.09 nM | 7.8 nM | 1510 | 198 |  |  |  |  |  |  | 
Cc1cc(/C=C/C#N)cc(C)c1Oc1nc(NC2CCN(Cc3ccc(S(N)(=O)=O)cc3)CC2)ncc1-c1cccc(O)c1 | 36.1 nM | 7850 nM | 115 nM | 18.5 nM | 5.61 nM | 33 nM | 11.6 nM | 6.32 nM | 16 nM | 25 nM | 1240 | 215 |  |  |  |  |  |  | 
Cc1cc(/C=C/C#N)cc(C)c1Oc1nc(NC2CCN(Cc3ccc(C(N)=O)cc3)CC2)ncc1-c1ccc2c(c1)OCO2 | 38.3 nM | 5320 nM | 110 nM | 19.4 nM | 5.64 nM | 58.1 nM | 8.21 nM | 4.17 nM | 9.42 nM | 46.9 nM | 1280 | 139 |  |  |  |  |  |  | 
Cc1cc(/C=C/C#N)cc(C)c1Cc1nc(NC2CCN(Cc3ccc(S(N)(=O)=O)cc3)CC2)ncc1-c1cncnc1 | 37.8 nM | 11300 nM | 117 nM | 13.4 nM | 5.02 nM | 41.9 nM | 4.52 nM | 5.4 nM | 8.21 nM | 15.3 nM | 2090 | 299 |  |  |  |  |  |  | 
Cc1cc(C#N)cc(C)c1Oc1nc(Nc2ccc(C#N)cc2)nc(N)c1Br [ETRAVIRINE] | 52.2 nM | > 4590 nM |  |  |  |  | 11.7 nM |  | 16.6 nM |  |  |  |  |  |  |  |  | 11.7 nM | 17 nM
Cc1cc(/C=C/C#N)cc(C)c1Oc1nc(NC2CCN(Cc3ccc(S(N)(=O)=O)cc3)CC2)ncc1-c1ccc(N)cc1 | 23.4 nM | 3810 nM | 97 nM | 8.93 nM | 3.85 nM | 24.9 nM | 3.23 nM | 3.64 nM | 5.37 nM | 9.02 nM | 1050 | 185 |  |  |  |  |  |  | 
